Data on one compound can be found in US7893088B2, “6-substituted isoquinoline derivatives” (N.V. Organon, priority 2006, dated 2011).

This assay addresses recombinant human ROCK-I (Homo sapiens, UniProt Q13464). Put plainly: biochemical. Particulars: IMAP fluorescence polarisation, dose response curve, read-out: plC50 (the source's name). The protocol: Following a one hour incubation at room temperature in the dark, enzyme activity is detected by adding 60 μl of IMAP binding reagent (Molecular Devices) to each well.
In general terms: In fluorescence polarisation assays a small probe gives low polarisation when free and higher when bound to something large.

Sequence of recombinant human ROCK-I (Q13464 whole entry): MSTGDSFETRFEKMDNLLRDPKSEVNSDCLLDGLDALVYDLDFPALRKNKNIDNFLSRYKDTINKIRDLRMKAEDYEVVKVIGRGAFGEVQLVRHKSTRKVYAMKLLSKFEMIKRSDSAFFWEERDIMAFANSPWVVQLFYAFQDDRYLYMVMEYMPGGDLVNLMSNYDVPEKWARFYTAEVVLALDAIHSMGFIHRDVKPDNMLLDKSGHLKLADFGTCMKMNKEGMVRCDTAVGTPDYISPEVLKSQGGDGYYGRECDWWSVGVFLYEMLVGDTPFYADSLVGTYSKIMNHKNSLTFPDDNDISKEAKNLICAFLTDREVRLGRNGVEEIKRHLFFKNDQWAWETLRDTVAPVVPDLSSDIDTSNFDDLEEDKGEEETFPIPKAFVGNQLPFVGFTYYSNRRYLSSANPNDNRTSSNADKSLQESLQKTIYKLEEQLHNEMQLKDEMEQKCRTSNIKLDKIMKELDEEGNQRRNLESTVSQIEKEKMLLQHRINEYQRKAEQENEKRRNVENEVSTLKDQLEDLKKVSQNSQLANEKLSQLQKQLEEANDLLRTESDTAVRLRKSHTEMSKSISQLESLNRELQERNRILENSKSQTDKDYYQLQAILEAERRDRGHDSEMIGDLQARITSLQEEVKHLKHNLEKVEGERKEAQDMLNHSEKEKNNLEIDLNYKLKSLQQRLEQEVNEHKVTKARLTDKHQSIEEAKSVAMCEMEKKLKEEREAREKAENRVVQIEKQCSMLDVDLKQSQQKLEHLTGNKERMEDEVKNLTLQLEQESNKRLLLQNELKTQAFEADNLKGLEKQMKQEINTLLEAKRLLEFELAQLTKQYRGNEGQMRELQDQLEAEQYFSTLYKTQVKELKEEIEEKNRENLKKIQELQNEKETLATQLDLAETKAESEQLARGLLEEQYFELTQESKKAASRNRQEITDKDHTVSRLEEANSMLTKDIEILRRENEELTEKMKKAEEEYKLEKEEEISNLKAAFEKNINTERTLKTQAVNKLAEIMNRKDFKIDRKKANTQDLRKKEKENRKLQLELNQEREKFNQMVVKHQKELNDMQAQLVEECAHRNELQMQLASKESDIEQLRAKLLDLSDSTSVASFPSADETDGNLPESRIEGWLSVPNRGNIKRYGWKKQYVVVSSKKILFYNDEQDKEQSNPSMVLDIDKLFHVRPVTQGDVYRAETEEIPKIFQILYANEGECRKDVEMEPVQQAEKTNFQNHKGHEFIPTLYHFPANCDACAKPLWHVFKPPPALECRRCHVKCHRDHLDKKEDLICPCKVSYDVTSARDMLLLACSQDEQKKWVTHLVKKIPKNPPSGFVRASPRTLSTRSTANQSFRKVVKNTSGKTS

For `Nc1nccc2cc(S[C@H]3CC[C@@H](N)CC3)ccc12` [Example 4, Cis-6-(4-aminocyclohexylsulfanyl)isoquinolin-1-ylamine], the IC50 is less than 316 nM.
